Laboratory results from ChEMBL document CHEMBL5614418, “Discovery of novel dihydropyrrolidone-thiadiazole compound crosstalk between the YycG/F two-component regulatory pathway and cell membrane homeostasis to combat methicillin-resistant Staphylococcus aureus” (Eur J Med Chem, 2024).
≈ marks a conversion by molar mass, not a printed value. Calls of active or inactive are those of the source. The calls are words filed in the database; no cut-off is given here.

Experiments:
Staphylococcus aureus [1] = assay: Antibacterial activity against methicillin sensitive Staphylococcus aureus SA113 assessed as reduction in membrane fluidity at 1 to 4 times MIC incubated for 30 mins by fluorescence based assay; assay type: functional, organism-based
[2] = tested on: Staphylococcus epidermidis; assay: Synergistic bactericidal activity against Staphylococcus epidermidis SE1457 assessed as planktonic cells killing by measuring log reduction in bacterial count at 8 times MIC measured after 24 hrs in presence of daptomycin; assay type: functional
Enterococcus faecalis [3] = assay: Antibacterial activity against Enterococcus faecalis OG1RF by broth microdilution method; assay type: functional
Enterococcus faecium = assay: Antibacterial activity against Enterococcus faecium EFM64 by broth microdilution method; assay type: functional
[4] = tested on: Staphylococcus epidermidis; assay: Bactericidal activity against Staphylococcus epidermidis SE1457; assay type: functional
Enterococcus faecalis [5] = assay: Bactericidal activity against Enterococcus faecalis OG1RF; assay type: functional
Pseudomonas aeruginosa = assay: Antibacterial activity against Pseudomonas aeruginosa; assay type: functional, organism-based
Klebsiella pneumoniae = assay: Antibacterial activity against Klebsiella pneumoniae; assay type: functional, organism-based
[6] = tested on: Staphylococcus epidermidis; assay: Inhibition of bacterial growth in Staphylococcus epidermidis SE1457 at MIC concentration measured upto 16 hrs; assay type: functional
Staphylococcus aureus [7] = assay: Inhibition of bacterial growth in methicillin sensitive Staphylococcus aureus SA113 at MIC concentration measured upto 16 hrs; assay type: functional
Staphylococcus aureus [8] = assay: Inhibition of bacterial growth in methicillin resistant Staphylococcus aureus USA300 at MIC concentration measured upto 16 hrs; assay type: functional
Staphylococcus aureus [9] = assay: Inhibition of bacterial growth in methicillin sensitive Staphylococcus aureus SA113 at 1/2 MIC concentration measured upto 16 hrs; assay type: functional, organism-based
Staphylococcus aureus [10] = assay: Inhibition of bacterial growth in methicillin resistant Staphylococcus aureus USA300 at 1/2 MIC concentration measured upto 16 hrs; assay type: functional, organism-based
[11] = tested on: Staphylococcus epidermidis; assay: Synergistic antibacterial activity against Staphylococcus epidermidis SE1457 in presence of vancomycin; assay type: functional, organism-based
[12] = tested on: Staphylococcus epidermidis; assay: Synergistic antibacterial activity against Staphylococcus epidermidis SE1457 in presence of linezolid; assay type: functional, organism-based
Staphylococcus aureus [13] = assay: Synergistic antibacterial activity against methicillin resistant Staphylococcus aureus USA300 in presence of vancomycin; assay type: functional, organism-based
Staphylococcus aureus [14] = assay: Synergistic antibacterial activity against methicillin resistant Staphylococcus aureus USA300 assessed as fold increase in MIC in presence of daptomycin; assay type: functional
Staphylococcus aureus [15] = assay: Synergistic bactericidal activity against Staphylococcus aureus USA300 assessed as planktonic cells killing by measuring log reduction in bacterial count at 8 times MIC measured after 24 hrs in presence of daptomycin; assay type: functional
Staphylococcus aureus [16] = assay: Synergistic bactericidal activity against Staphylococcus aureus USA300 assessed as persister cells killing by measuring log reduction in bacterial count at 8 times MIC measured after 72 hrs in presence of daptomycin; assay type: functional
Staphylococcus aureus [17] = assay: Antibacterial activity against methicillin resistant Staphylococcus aureus USA300 by broth microdilution method; assay type: functional
[18] = tested on: Staphylococcus epidermidis; assay: Inhibition of biofilm formation in Staphylococcus epidermidis SE1457 at 1/2 MIC incubated for 16 hrs by SEM analysis; assay type: functional, organism-based
[19] = tested on: Staphylococcus epidermidis; assay: Induction of matured biofilm eradication in Staphylococcus epidermidis SE1457 assessed as reduction in bacterial survival in biofilm at 8 times MIC incubated for 48 hrs by SYTO 9 staining based confocal fluorescence microscopic analysis; assay type: functional
Staphylococcus aureus [20] = assay: Induction of matured biofilm eradication in methicillin resistant Staphylococcus aureus YUSA145 assessed as reduction in bacterial survival in biofilm at 8 times MIC incubated for 48 hrs by SYTO 9 staining based confocal fluorescence microscopic analysis; assay type: functional
Staphylococcus aureus [21] = assay: Induction of matured biofilm eradication in methicillin resistant Staphylococcus aureus YUSA145 assessed as reduction in bacterial survival in biofilm at 8 times MIC incubated for 48 hrs in presence of daptomycin by SYTO 9 staining based confocal fluorescence microscopic analysis; assay type: functional
Staphylococcus aureus [22] = assay: Induction of matured biofilm eradication in methicillin resistant Staphylococcus aureus YUSA145 assessed as log reduction in bacterial count in biofilm at 8 MIC incubated for 48 hrs in presence of daptomycin by agar plate method; assay type: functional
Staphylococcus aureus [23] = assay: Downregulation of arcC2 expression level in methicillin sensitive Staphylococcus aureus SA113 at 1/2 MIC incubated for 2 hrs by MS/MS analysis; assay type: functional
Staphylococcus aureus [24] = assay: Downregulation of pflB expression level in methicillin sensitive Staphylococcus aureus SA113 at 1/2 MIC incubated for 2 hrs by MS/MS analysis; assay type: functional
Staphylococcus aureus [25] = assay: Downregulation of intracellular ATP level in methicillin sensitive Staphylococcus aureus SA113 at 1 to 4 times MIC incubated for 30 mins; assay type: functional, cell-based
Staphylococcus aureus [26] = assay: Downregulation of arcC1 gene expression level in methicillin sensitive Staphylococcus aureus SA113 at 1/2 MIC by RT-qPCR analysis; assay type: functional
Staphylococcus aureus [27] = assay: Downregulation of arcC2 gene expression level in methicillin sensitive Staphylococcus aureus SA113 at 1/2 MIC by RT-qPCR analysis; assay type: functional
Staphylococcus aureus [28] = assay: Downregulation of pflA gene expression level in methicillin sensitive Staphylococcus aureus SA113 at 1/2 MIC by RT-qPCR analysis; assay type: functional
Staphylococcus aureus [29] = assay: Downregulation of pflB gene expression level in methicillin sensitive Staphylococcus aureus SA113 at 1/2 MIC by RT-qPCR analysis; assay type: functional
[30] = tested on: Staphylococcus epidermidis; assay: Antibacterial activity against Staphylococcus epidermidis SE1457 in presence of palmitic acid; assay type: functional, organism-based
[31] = tested on: Staphylococcus epidermidis; assay: Antibacterial activity against methicillin resistant Staphylococcus epidermidis SE1457 infected in BALB/c mouse wound model assessed as log reduction in wound bacterial load at 20 mg/kg, ip administered every 12 hrs for 3 times and measured after 48 hrs; assay type: functional
Staphylococcus aureus [32] = assay: Antibacterial activity against methicillin resistant Staphylococcus aureus USA300 infected in BALB/c mouse wound model assessed as log reduction in wound bacterial load at 20 mg/kg, ip administered every 12 hrs for 3 times and measured after 48 hrs in presence of DAP; assay type: functional
Staphylococcus aureus [33] = assay: Antibacterial activity against methicillin resistant Staphylococcus aureus […] infected in BALB/c mouse wound model assessed as log reduction in wound bacterial load at 20 mg/kg, ip administered every 12 hrs for 3 times and measured after 48 hrs in presence of DAP; assay type: functional
[34] = Toxicity in BALB/c mouse assessed as change in ALT level at 50 mg/kg, ip measured after 1 to 3 days; assay type: organism-based; settings: in vivo, time 1-3 day
[35] = Toxicity in BALB/c mouse assessed as change in CREA level at 50 mg/kg, ip measured after 1 to 3 days; assay type: organism-based; settings: in vivo, time 1-3 day
[36] = Toxicity in BALB/c mouse assessed as change in K+ level at 50 mg/kg, ip measured after 1 to 3 days; assay type: organism-based; settings: in vivo, time 1-3 day
[37] = Toxicity in BALB/c mouse assessed as apparent tissue damage at 50 mg/kg, ip measured after 1 to 3 days; assay type: organism-based; settings: in vivo, time 1-3 day
Staphylococcus aureus [38] = assay: Antibacterial activity against methicillin sensitive Staphylococcus aureus CHS101; assay type: functional

O=C(C1=C(O)C(=O)N(c2nnc(SCc3ccccc3Cl)s2)C1c1ccccc1O)c1cc2ccccc2o1 (stereo not drawn)
Activity (Staphylococcus aureus [1]): Active | log(activity) [2]: 4.5 | MIC50 (Enterococcus faecalis [3]): ≥ 50 µM | MIC90 (Enterococcus faecalis [3]): ≥ 50 µM | MIC50 (Enterococcus faecium): ≥ 50 µM | MIC90 (Enterococcus faecium): ≥ 50 µM | MBC [4]: 25 µM (≈ 14.4 µg/mL) | MBC (Enterococcus faecalis [5]): 100 µM (≈ 57.6 µg/mL) | Activity (Pseudomonas aeruginosa): Active | Activity (Klebsiella pneumoniae): Active | inhibition (INH) [6]: 100% | inhibition (INH) (Staphylococcus aureus [7]): 100% | inhibition (INH) (Staphylococcus aureus [8]): 100% | growth inhibition (GI) (Staphylococcus aureus [9]): Active | growth inhibition (GI) (Staphylococcus aureus [10]): Active | Activity [11]: inactive | Activity [12]: inactive | Activity (Staphylococcus aureus [13]): inactive | fold change (FC) (Staphylococcus aureus [14]): 2 | log(activity) (Staphylococcus aureus [15]): 4.5 | log(activity) (Staphylococcus aureus [16]): 3 | MIC (Staphylococcus aureus [17]): 12.5 µM (≈ 7.2 µg/mL) | inhibition [18]: Active | Activity [19]: <50% | Activity (Staphylococcus aureus [20]): <50% | Activity (Staphylococcus aureus [21]): >70% | log(activity) (Staphylococcus aureus [22]): 3 | Activity (Staphylococcus aureus [23]): Active | Activity (Staphylococcus aureus [24]): Active | Activity (Staphylococcus aureus [25]): Active | Activity (Staphylococcus aureus [26]): Active | Activity (Staphylococcus aureus [27]): Active | Activity (Staphylococcus aureus [28]): Active | Activity (Staphylococcus aureus [29]): Active | Activity [30]: inactive | log(activity) [31]: 1 | log(activity) (Staphylococcus aureus [32]): 3.5 | log(activity) (Staphylococcus aureus [33]): 3.5 | Activity [34]: Non-Toxic | Activity [35]: Non-Toxic | Activity [36]: Non-Toxic | Activity [37]: Non-Toxic | MIC (Staphylococcus aureus [38]): 12.5 µM (≈ 7.2 µg/mL)
